The values that follow come from US12643910B2, “Substituted pyrazolo[3,4-b]pyridines as ectonucleotide pyrophosphatase/phosphodiesterase 1 (ENPP1) modulators” (SANFORD BURNHAM PREBYS MEDICAL DISCOVERY INSTITUTE, priority 2019, dated 2026).

The target of assay [1] is T1, human ENPP1 (Homo sapiens, UniProt P22413).
T1 construct: made in house
T1 sequence (P22413 1-925): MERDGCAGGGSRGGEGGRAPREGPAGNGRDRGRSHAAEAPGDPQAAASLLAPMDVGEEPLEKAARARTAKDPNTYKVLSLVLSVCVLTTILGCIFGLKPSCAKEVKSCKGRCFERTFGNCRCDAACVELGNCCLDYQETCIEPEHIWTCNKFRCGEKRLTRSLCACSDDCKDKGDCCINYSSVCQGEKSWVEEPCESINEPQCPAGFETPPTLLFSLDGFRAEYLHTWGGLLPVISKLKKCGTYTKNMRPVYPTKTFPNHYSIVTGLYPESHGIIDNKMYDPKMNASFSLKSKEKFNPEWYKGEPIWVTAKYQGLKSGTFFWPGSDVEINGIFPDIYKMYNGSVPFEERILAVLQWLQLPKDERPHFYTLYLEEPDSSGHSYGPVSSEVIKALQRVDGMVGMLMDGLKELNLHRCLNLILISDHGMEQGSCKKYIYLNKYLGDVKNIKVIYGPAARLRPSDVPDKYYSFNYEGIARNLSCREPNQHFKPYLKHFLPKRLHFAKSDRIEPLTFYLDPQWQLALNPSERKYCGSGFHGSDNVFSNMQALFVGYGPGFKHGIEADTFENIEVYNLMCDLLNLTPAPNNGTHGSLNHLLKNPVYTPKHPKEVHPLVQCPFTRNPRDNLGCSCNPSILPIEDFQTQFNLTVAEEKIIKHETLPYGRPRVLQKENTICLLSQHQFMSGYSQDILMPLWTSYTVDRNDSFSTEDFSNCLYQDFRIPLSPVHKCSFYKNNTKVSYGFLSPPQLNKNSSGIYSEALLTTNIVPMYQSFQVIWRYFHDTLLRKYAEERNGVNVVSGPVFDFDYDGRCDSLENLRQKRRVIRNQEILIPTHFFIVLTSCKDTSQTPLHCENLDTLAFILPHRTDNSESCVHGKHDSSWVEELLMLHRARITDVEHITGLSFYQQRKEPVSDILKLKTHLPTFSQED
The experiment in a line: ENPP1 assay with ATP substrate (Transcreener AMP2/GMP2 TR-FRET). In kind it is biochemical. Particulars: 1 hour at room temperature. In a few lines:
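Reaction ran 1 h at room temperature in pH 7.5 Tris with MgCl2, TCEP, Tween 20 and 1% DMSO. ATP was added as a 300 nM stock and enzyme as an 8.5 μM stock. After EDTA stop, AMP was read by TR-FRET tracer displacement. Percent inhibition used enzyme/no-enzyme controls; IC50 was fitted with a variable slope.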

Assay [2] has as its target T2, ENPP3 (Homo sapiens, UniProt O14638).
T2 sequence (O14638 1-875): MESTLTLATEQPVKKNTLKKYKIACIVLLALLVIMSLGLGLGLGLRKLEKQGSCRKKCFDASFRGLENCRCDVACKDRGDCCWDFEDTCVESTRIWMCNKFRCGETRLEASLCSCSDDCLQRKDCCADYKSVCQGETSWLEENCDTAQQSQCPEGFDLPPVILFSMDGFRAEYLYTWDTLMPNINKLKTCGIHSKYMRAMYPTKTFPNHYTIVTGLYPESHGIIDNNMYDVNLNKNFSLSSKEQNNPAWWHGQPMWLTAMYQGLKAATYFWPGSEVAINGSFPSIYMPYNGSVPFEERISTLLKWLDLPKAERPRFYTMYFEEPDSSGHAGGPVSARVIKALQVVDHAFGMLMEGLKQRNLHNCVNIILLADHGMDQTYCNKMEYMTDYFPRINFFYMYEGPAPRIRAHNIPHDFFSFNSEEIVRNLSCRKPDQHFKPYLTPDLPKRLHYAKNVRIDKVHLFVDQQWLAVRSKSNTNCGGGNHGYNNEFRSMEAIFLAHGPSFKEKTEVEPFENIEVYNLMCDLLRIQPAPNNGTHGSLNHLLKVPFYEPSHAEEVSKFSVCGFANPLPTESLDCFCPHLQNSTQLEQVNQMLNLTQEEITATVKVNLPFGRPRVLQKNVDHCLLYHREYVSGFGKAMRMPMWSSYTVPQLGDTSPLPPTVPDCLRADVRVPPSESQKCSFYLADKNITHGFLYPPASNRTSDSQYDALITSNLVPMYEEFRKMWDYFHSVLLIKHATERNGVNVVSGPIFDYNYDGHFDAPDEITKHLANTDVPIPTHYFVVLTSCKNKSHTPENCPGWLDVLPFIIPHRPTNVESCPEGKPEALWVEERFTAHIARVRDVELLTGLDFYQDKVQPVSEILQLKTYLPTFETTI
Briefly: ENPP3 Km ATP assay. It is filed as biochemical. Particulars: ATP at Km.

SMILES strings stand for the structures.

`Cc1csc2c(N3CCN(CCCCc4ccncc4)CC3)ncnc12` [Example 3.7, 7-Methyl-4-(4-(4-(pyridin-4-yl)butyl)piperazin-1-yl)thieno[3,2-d]pyrimidine]: the IC50 in assay [1] was 1 to 20 µM; in assay [2], over 20 µM.

Consider `Fc1ccc(CCCNC2CCN(c3ncnc4c(-c5ccccc5)csc34)CC2)cc1` [Example 3.58, N-(3-(4-Fluorophenyl)propyl)-1-(7-phenylthieno[3,2-d]pyrimidin-4-yl)piperidin-4-amine], for which the IC50 in assay [1] was 1 to 20 µM; in assay [2], over 20 µM.

With `O=C(CCc1ccc(F)cc1)NC1CCN(c2ncnc3c(-c4ccccc4)csc23)CC1` [Example 3.57, 3-(4-Fluorophenyl)-N-(1-(7-phenylthieno[3,2-d]pyrimidin-4-yl)piperidin-4-yl)propanamide], the IC50 in assay [1] and in assay [2] was over 20 µM in each case.

On to `CCOc1nc(NCc2ccc(S(N)(=O)=O)cc2)c2cnn(C)c2n1` [Example 2.93, 4-((6-Ethoxy-1-methyl-1H-pyrazolo[3,4-d]pyrimidin-4-yl)aminomethyl)-benzenesulfonamide], for which the half-maximal inhibitory concentration (IC50) is under 0.1 µM in assay [1] and 0.1 to 1 µM in assay [2].

Turning to `Cn1ncc2c(NCc3ccc(S(N)(=O)=O)cn3)ncnc21` [Example 2.53, 6-(((1-Methyl-1H-pyrazolo[3,4-d]pyrimidin-4-yl)amino)methyl)pyridine-3-sulfonamide], the figures for the IC50 in assay [1] and in assay [2] were 0.1 to 1 µM and over 20 µM, respectively.

For `COc1cc(CCC(=O)NC2CCN(c3ncnc4c(C)csc34)CC2)ccn1` [Example 3.8], the IC50 in assay [1] was 1 to 20 µM; in assay [2], over 20 µM.

In the case of `Cc1noc2ncnc(NCc3ccc(S(N)(=O)=O)cc3)c12` [Example 2.59, 4-(((3-Methylisoxazolo[5,4-d]pyrimidin-4-yl)amino)methyl)benzenesulfonamide], the IC50 in assay [1] and in assay [2] was 1 to 20 µM each time.

Take `Cn1ncc2c(NCc3ccc(S(N)(=O)=O)c(F)c3)ncnc21` [Example 2.1, 2-Fluoro-4-(((1-methyl-1H-pyrazolo[3,4-d]pyrimidin-4-yl)amino)methyl)-benzenesulfonamide]: the IC50 in assay [1] is under 0.1 µM; in assay [2] it was 1 to 20 µM.

Turning to `Cn1nc(-c2ccccn2)c2c(NCc3ccc(S(N)(=O)=O)cc3)nc(Cl)nc21` [Example 2.124, 4-((6-Chloro-1-methyl-3-(2-pyridyl)-1H-pyrazolo[3,4-d]pyrimidin-4-yl)aminomethyl)benzenesulfonamide], the IC50 in assay [1] and in assay [2] was 0.1 to 1 µM throughout.

For `NS(=O)(=O)c1ccc(CNc2nc(-c3ccccn3)nc3scc(-c4ccccc4)c23)c(Cl)c1` [Example 1.21, 3-Chloro-4-(((5-phenyl-2-(pyridin-2-yl)thieno[2,3-d]pyrimidin-4-yl)amino)methyl)-benzenesulfonamide], the values for the 50% inhibitory concentration (IC50) in assay [1] and in assay [2] were under 0.1 µM and 0.1 to 1 µM, respectively.

For the molecule `Cc1ccc(CCCNC2CCN(c3ncnc4c(C)csc34)CC2)cc1` [Example 3.4, 1-(7-Methylthieno[3,2-d]pyrimidin-4-yl)-N-(3-(p-tolyl)propyl)piperidin-4-amine], the values for the IC50 in assay [1] and in assay [2] were 0.1 to 1 µM and over 20 µM, respectively.

As for `Cn1ncc2c(NCc3ccc(S(N)(=O)=O)cc3)nc(NC3CCCCC3)nc21` [Example 2.30, 4-(((6-(Cyclohexylamino)-1-methyl-1H-pyrazolo[3,4-d]pyrimidin-4-yl)amino)methyl)-benzenesulfonamide], the 50% inhibitory concentration (IC50) in assay [1] and in assay [2] was 1 to 20 µM each time.

For the molecule `Cn1ncc2c(NCc3ccc(S(N)(=O)=O)cn3)cc(Cl)nc21` [Example 2.142, 6-(((6-Chloro-1-methyl-1H-pyrazolo[3,4-b]pyridin-4-yl)amino)methyl)pyridine-3-sulfonamide], the IC50 was under 0.1 µM in assay [1] and 0.1 to 1 µM in assay [2].

Take `Cc1cc(CNc2ccnc3c2cnn3C)ccc1S(N)(=O)=O` [Example 2.70, 2-Methyl-4-(((1-methyl-1H-pyrazolo[3,4-b]pyridin-4-yl)amino)methyl)-benzenesulfonamide]: the IC50 in assay [1] was 0.1 to 1 µM; in assay [2], 1 to 20 µM.

Take `CN(C)c1nc(NCc2ccc(S(N)(=O)=O)cc2)c2cnn(C)c2n1` [Example 2.28, 4-(((6-(Dimethylamino)-1-methyl-1H-pyrazolo[3,4-d]pyrimidin-4-yl)amino)methyl)-benzenesulfonamide]: the IC50 was in the range of 1 to 20 µM in assay [1] and 0.1 to 1 µM in assay [2].

`Cn1ncc2c(NCc3ccc(S(N)(=O)=O)nc3)ccnc21` [Example 2.72, 5-(((1-Methyl-1H-pyrazolo[3,4-b]pyridin-4-yl)amino)methyl)pyridine-2-sulfonamide]: the IC50 was under 0.1 µM in assay [1] and 0.1 to 1 µM in assay [2].

Take `COc1cc(CNc2ncnc3c2cnn3C)ccc1S(N)(=O)=O` [Example 2.42, 2-Methoxy-4-(((1-methyl-1H-pyrazolo[34-d]pyrimidin-4-yl)amino)methyl)-benzenesulfonamide]: the concentration for half-maximal inhibition (IC50) in assay [1] and in assay [2] was over 20 µM throughout.

Regarding `NS(=O)(=O)c1ccc(CNc2nc(-c3ccccn3)nc3scc(-c4ccccn4)c23)cc1` [Example 1.23, 4-(((2,5-Di(pyridin-2-yl)thieno[2,3-d]pyrimidin-4-yl)amino)methyl)benzenesulfonamide], the values for the IC50 in assay [1] and in assay [2] were 0.1 to 1 µM and 1 to 20 µM, respectively.

With `Cc1csc2c(N3CCC(NCCCc4ccccn4)CC3)ncnc12` [Example 3.3, 1-(7-Methylthieno[3,2-d]pyrimidin-4-yl)-N-(3-(pyridin-2-yl)propyl)piperidin-4-amine], the IC50 in assay [1] is 0.1 to 1 µM; in assay [2], over 20 µM.

In the case of `Cn1ncc2c(NCc3ccc(S(N)(=O)=O)cc3)cnnc21` [Example 2.55, 4-(((1-Methyl-1H-pyrazolo[3,4-c]pyridazin-4-yl)amino)methyl)benzenesulfonamide], the half-maximal inhibitory concentration (IC50) was 0.1 to 1 µM in assay [1] and 1 to 20 µM in assay [2].

As for `Cc1csc2c(N3CCC(NCCCc4ccncc4)CC3)nc(-c3ccccn3)nc12` [Example 3.56, 1-(7-Methyl-2-(pyridin-2-yl)thieno[3,2-d]pyrimidin-4-yl)-N-(3-(pyridin-4-yl)propyl)piperidin-4-amine], the IC50 in assay [1] and in assay [2] was over 20 µM in each case.

On to `Cn1ncc2c(NCc3ccc(S(N)(=O)=O)cc3)cc(NCCO)nc21` [Example 2.81, 4-(((6-((2-Hydroxyethyl)amino)-1-methyl-1H-pyrazolo[3,4-b]pyridin-4-yl)amino)methyl)-benzenesulfonamide], for which the IC50 in assay [1] and in assay [2] was 1 to 20 µM each time.

`NS(=O)(=O)c1ccc(CNc2nc(-c3ccncc3)nc3scc(-c4ccccc4)c23)s1` [Example 1.29, 5-(((5-Phenyl-2-(pyridin-4-yl)thieno[2,3-d]pyrimidin-4-yl)amino)methyl)thiophene-2-sulfonamide]: the IC50 in assay [1] and in assay [2] was over 20 µM each time.

In the case of `CCNc1cc(NCc2ccc(S(N)(=O)=O)cc2)c2cnn(C)c2n1` [Example 2.75, 4-(((6-(Ethylamino)-1-methyl-1H-pyrazolo[3,4-b]pyridin-4-yl)amino)methyl)-benzenesulfonamide], the IC50 in assay [1] was in the range of 0.1 to 1 µM; in assay [2], 1 to 20 µM.
